Patent publication US11958869B2, “Ruthenium arene Schiff-base complexes and uses thereof” (CITY UNIVERSITY OF HONG KONG, priority 2021, dated 2024)
Read-outs that look alike come from different tables or passages of the source.

Key:
[1] = system: MDA-MB-231 mammospheres; assay: Viability of MDA-MB-231 mammospheres, Alamar Blue assay (Table 1); assay type: cell-based; details: read-out: IC50 (μM), growth of MDA-MB-231 mammospheres
[2] = system: MCF-7; assay: cells; assay type: cell-based; details: 72 h, MTT; read-out: IC50 (μM) MCF-7 72 h
Experimental: (§1) Cells were seeded in 96-well plates and maintained for 14-16 hours, then were treated with dimethylsulfoxide (DMSO) or test compound at various concentrations (i.e., 0.312, 1.25, 5, 20 μM) for 72 hrs. The cells were then washed with phosphate buffer saline (PBS) twice, added a medium containing 3-(4,5-dimethylthiazol-2-yl)-2,5-diphenyltetrazolium bromide (MTT) at a final concentration of 0.5 mg/mL, and incubated for 4 hr at 37° C. in a humidified incubator containing 5% CO2 in air. Cells having functional succinate dehydrogenase of mitochondria would convert MTT to formazan. Then, the medium was replaced with 100 μL of DMSO for 30 min at room temperature, and the 96-well plate was read by an ELISA reader at 550 nm to get the absorbance density values. The IC50 values of death cell lines were calculated accordingly.
(§2) The Ru^TEN complexes of Example 1 were evaluated for their anti-proliferative properties in two breast cancer cell lines, namely, MCF-7 and MDA-MB-231 cells via MTT assay. […] MCF-7 is a chemotherapy-responsive breast cancer cell line of luminal subtype with high expression of estrogen receptor (ER), whereas MDA-MB-231 is a triple negative breast cancer (TNBC) or basal-like breast cancer cell ine. TNBC is defined as highly invasive cancer that lacks expression of ER, progesterone receptor (PR) and Her-2; it has one of the worst outcomes among all subtypes of breast cancers. The aggressive nature of TNBC may be related to the presence of breast cancer stem cells within the tumor; therefore, MDA-MB-231 cells are often used as a model of mammary cancer stem cells.
(§3) The cytotoxicity of Ru^TEN complexes of Example 1 was compared to that of cisplatin or oxaliplatin, which were known to induce their anticancer effects by the mode of action different from ER stress. Three CSC-selective organic compounds, salinomycin, etoposide and abamectin, were also used for comparison. Briefly, MCF-7 and MDA-MB-231 cells were respectively treated with increasing concentrations of compounds of interest for 24 or 72 hrs and then the cell viability was measured.

[3] = system: MDA-MB-231; assay: Anti-proliferative activity (MTT assay), MDA-MB-231; assay type: cell-based; details: MTT
Experimental: as §1, §2, §3

[4] = system: MDA-MB-231 mammospheres; assay: Cytotoxicity in MDA-MB-231 mammospheres (Table 2); assay type: cell-based; details: 72 h; read-out: IC50 (μM) MDA-MB-231 mammospheres 72 h
[5] = system: MCF-7 mammospheres; assay: Mammosphere formation assay, MCF-7; assay type: cell-based
Experimental: (§4) Since the breast cancer stem cells formed a mass of colonies in the form of floating spheres without attaching to a surface of a plate, the size and number of the masses were observed by a mammosphere formation assay to determine a cancer-stem-cell-specific effect.
(§5) Single-cell suspension was cultured at a density of 1,000 to 15,000 cells/well using a MammoCult™ Human Medium kit (Stemcell Technologies Inc Vancouver, CA), and the spherical cells were counted and observed under a microscope.
(§6) The mammosphere assay is based on the concept that when cells proliferate in three-dimensional spheroid structures, only cancer cells with stem-like characteristics are able to evade anoikis.

[6] = system: MDA-MB-231 mammospheres; assay: Mammosphere formation assay, MDA-MB-231 primary; assay type: cell-based
Experimental: as §4, §5, §6

[7] = system: MDA-MB-231 secondary mammospheres; assay: Secondary mammosphere formation (self-renewal), MDA-MB-231; assay type: cell-based
Experimental: To this purpose, drug-treated primary MDA-MB-231 mammospheres were dissociated into single cell suspensions and incubated for 7 days in ultralow attachment drug-free conditions.

[8] = system: MDA-MB-231 mammospheres; assay: Invasion / dispersion of spheroids into 3D collagen; assay type: cell-based; details: cells incubated with compound 72 hr; 28 hr; FIG. 4
From the text: CSCs are associated with highly invasive phenotype and it is believed that this subset of cancer cells gives rise to metastases. In order to monitor the dissemination of MCF-7 and MDA-MB-231 breast cancer spheroids, the spheroids were embedded into three-dimensional (3D) collagen scaffold using Aim Biotech 3D cell culture chips. Collagen with spheroids was introduced into the central region of the microfluidic system where it polymerized via thermal cross-linking. Cell culture media was introduced into media channels forcing spheroids to move through collagen towards the media.
Thus, whether Ru^TEN complexes and salinomycin affected the invasive properties of MDA-MB-231 spheroids was then investigated. To this purpose, MDA-MB-231 monolayer cells were incubated with compounds of interest (e.g., Ru^TEN complexes of Examplel or salinomycin) for 72 hr, then the delamination was allowed to proceed for over 28 hr. Results are depicted in FIG. 4.

[9] = Acute toxicity, tolerated dose in Balb/c mice; assay type: in vivo
Experimental: In this example, Ru^TEN3 was subjected to in vivo studies with Balb/c mice. Various treatment regimens were explored to define the optimally tolerated dose of Ru^TEN3 in vivo. […] The body weight changes were recorded.

[10] = Ru biodistribution in tumor-bearing mice; assay type: in vivo; details: FIG. 6
From the text: The Ru biodistribution in tumor-bearing mice treated with Ru^TEN3 was also investigated.

[11] = system: human hepatocellular carcinoma LM3 xenografts; assay: Hepatocellular carcinoma LM3 xenograft model; assay type: in vivo, athymic NCr nude mice; details: all doses tested, FIG. 8
Experimental: (§7) Hepatocellular carcinoma LM3 cells (5×10^4 cells/20 μL) or breast cancer MDM-BA-231 cells (5×10^4 cells/20 μL) were implanted subcutaneously in the flanks of athymic NCr nude mice. A total of 40 male NCr nude mice (8 weeks or older weighing 20-24 g or more) were used for the tumor xenografts. The tested compounds (e.g., Ru^TEN 1, Ru^TEN 3, or salinomycin) were intraperitoneally administered at the dose of […] twice per week. Tumor volume was determined by image analysis. The mice in the control group received corresponding injection of 0.1% DMSO. For tumor-bearing NCr nude mice during the 4-weeks (or 28 days) experiment, the % body weight changes refer to: (the total weight on reading day/the total weight on day treatment started)×100. All mice were sacrificed at the end of the experiment (i.e., by the end of 28 days), and tissues including lung, liver, tumor, heart, brain, kidneys, spleen and colon were harvested, and checked for any sign of cancer metastasis.

[12] = system: human MD-MBA-231 breast cancer xenografts; assay: Breast cancer MDA-MB-231 xenograft model; assay type: in vivo, athymic NCr nude mice; details: doses tested, FIG. 11
Experimental: as §7
Results are depicted in FIGS. 9 to 11.

[13] = primary mammospheres grown 96 hr, incubated with compound 72 hrs, >50 μm analyzed
[14] = from drug-treated primary mammospheres, grown in drug-free conditions for 7 days

[(η6-1,3,5-triisopropybenzene)RuCl(3-chloro-N-(2-quinolinylmethylene)-aniline)]Cl [Ru^TEN3]
IC50 [1]: 2.7 µM | IC50 [2]: 4.4 ± 0.4 µM | IC50 ([3]; 24 h, read-out: IC50 (μM) MDA-MB-231 24 h): 4.5 ± 0.8 µM | IC50 ([3]; 72 h, read-out: IC50 (μM) MDA-MB-231 72 h): 1.5 ± 0.3 µM | IC50 [4]: 1.7 ± 0.3 µM | Number of MCF-7 mammospheres [5, 13]: 183 ± 32 | Size (μm) of MCF-7 mammospheres [5, 13]: 122 ± 16 μm | decrease in number of MCF-7 mammospheres ([5]; versus control): 30% | Number of MDA-MB-231 mammospheres [6, 13]: 50 ± 21 | Size (μm) of MDA-MB-231 mammospheres [6, 13]: 76 ± 19 μm | decrease in number of MDA-MB-231 mammospheres ([6]; versus control): 35% | decrease in size of MDA-MB-231 mammospheres ([6]; versus control): 60% | Number of MDA-MB-231 secondary mammospheres [7, 14]: 81 ± 9 | Size (μm) of MDA-MB-231 secondary mammospheres [7, 14]: 67 ± 4 μm | propensity to form secondary mammospheres ([7]; single cells from drug-treated primary mammospheres, 7 days drug-free, FIG. 2): drastically reduced propensity to form secondary mammospheres | dispersion of cells into collagen after 28 hr / entire incubation period [8]: did not migrate from the spheroids | body weight and condition ([9]; 5 μmol/kg intraperitoneally twice a week for 33 days): did not demonstrate any weight loss | body weight and condition ([9]; 10 μmol/kg intraperitoneally twice a week for 33 days): did not demonstrate any weight loss | body weight and condition ([9]; 20 μmol/kg intraperitoneally twice a week): experienced severe pain, stopped moving, thus were euthanized | Ru accumulation in tissues [10]: highest Ru accumulation was observed in spleen and liver, followed by kidney and colon | Ru content in the brain [10]: very low | body weight of LM3 tumor-bearing mice [11]: neither Ru^TEN1 nor Ru^TEN3 had caused lost in body weight | body weight / toxicity in MDA-MB-231 tumor-bearing mice [12]: low toxicity
